The values that follow come from patent US20080058636A1, “METHODS OF MYOCARDIAL IMAGING” (Epix Pharmaceuticals, Inc., priority 2005, published 2008).

Bridge positions count the residues as written; N and C are the ends. Ends that are not written are not given here.

The nature of series [1]: In vivo heart uptake in mice, gadolinium by ICP-MS (tail vein). Also noted: species or system BALB/c mice. Particulars: mouse, 10 μmol/kg tail vein, 15 minutes post-injection. The method, then:
In vivo heart uptake of these two compounds were also compared. […] The animals were sacrificed at 15 minutes post-injection. The organs were immediately removed and rinsed in saline, and then blotted dry. […] Both compounds have similar concentrations in the blood.

For series [2], the system named is infarcted myocardium. Put plainly: Myocardial infarction MR imaging in mouse (7 days post MI). The note with it: 25 μmol/kg i.v.
Method: A myocardial infarct (MI) was induced in a 28 g C57BL/6 mouse by a 1-hr occlusion of the left anterior descending coronary artery, followed by reperfusion. The mouse was allowed to recover. Seven days post MI, the mouse was anesthetized using a 2% mixture of isoflurane in oxygen and anesthesia was maintained with a 1% mixture. The mouse forelimbs were shaved and fitted with pediatric ECG leads (Blue Sensor, BRS-50-K/UJS, Ambu, Inc., Linthicum, Md.). […] Temperature was maintained at 37° C. using tubing that contained circulating, thermostated water. An i.v. line was implanted in the tail vein and the mouse was placed in the magnet.
Images were acquired on a Varian 4.7-T Inova scanner. A cardiac-gated gradient echo inversion recovery sequence was used whereby the inversion time was set to null the signal from the myocardium. The inversion pulse was a non-selective sinc pulse with a TI of 430 ms and TR of 3 seconds. The excitation is slice selective at 90 degrees and 3 to 4 lines were acquired per TR. Scan time was 4-5 minutes.
Baseline images were acquired. Typically 3-4 short-axis slices were acquired. […] Imaging was repeated out to an hour post injection.
Series [3] relates to infarcted myocardium. As to the kind of experiment: Mouse model of chronic infarction, MR imaging. Particulars: mice with 7 day, 40 day or 210 day infarcts, 25 μmol/kg i.v.
Method: Myocardial infarction was induced in C57BL/6 mice by occlusion of the left anterior descending coronary artery followed by reperfusion. The mice were anesthetized with an intraperitoneal (i.p.) injection of 100 μg pentobarbital sodium per gram body weight and a thorocotamy was performed. The pericardium was removed and the left anterior artery was sutured with a 7.0 silk suture for 60 minutes after which reperfusion was established.
Imaging was performed on separate animals at 7 days, 40 days, or 210 days following infarction. Imaging was performed using on a Varian 4.7 T MRI system Mice were anesthetized with isoflurane (1 vol. % in oxygen). Three pediatric electrocardiogram (ECG) leads were attached to shaved limbs and a rectal temperature probe was placed. […] Temperature was maintained at 37.0±0.5° C. using circulating hot water. Imaging was performed prior to, and serially (every 5 minutes) post intravenous (tail vein) injection of 25 μmol/kg Compound ID NO. […] 6-8 short-axis inversion-recovery slices covering the whole heart from base to apex were acquired with TI=430 ms, TR=1000 ms, RE=4.3 ms and 2 averages.
A heart with a 40 day old infarct was explanted, thoroughly washed in saline solution and fixed in a 3% by volume isotonic solution of formaldehyde for 12 hrs at 3° C. They were washed in PBS and stored in 70% ETOH before embedding in paraffin. […]
In series [4] the test system is perfused Langendorff rat heart. As to the kind of experiment: Equilibrium binding to perfused Langendorff rat heart. The protocol: After deep anesthesia with pentobarbital (80 mg/kg ip), the chest cavity of a male Sprague Dawley rat (300 g) was opened, retracted and the heart was removed immediately and placed in an ice-cold normal Krebs-Henseleit (K-H) solution (NaCl, 118 mM; KCl, 4.7 mM; CaCl2, 2.5 mM; MgSO4, 1.2 mM; KH2PO4, 1.2 mM; NaHCO3, 25 mM; glucose, 5.5 mM). A K-H buffer filled 20 Gauge needle was inserted into the apex of the heart penetrating into the bottom of the chamber. This was attached to a pressure transducer used to record and monitor heart function. Perfusion pressure (60 mmHg) was monitored using a second transducer. The heart was perfused at a constant flow rate of 10-12 mL/min with 37° C. Krebs-Henseleit buffer saturated with a mixture of 95% O2 and 5% CO2 gas. The heart was paced at 300 beats/min.
Two peptide test articles, a high collagen binding peptide (SEQ ID NO: 144) and a low collagen binding peptide (SEQ ID NO: 173), are compared to GdDTPA. The appropriate test article was added to the K-H buffer solution to a total concentration of either 3 or 30 μM. Also added to the K-H buffer was a radiotracer analog of each peptide or GdDTPA. For the peptides, the radiotracer was an aliquot of the appropriate I-125 labeled peptide derivative (see Example 5 for protocol). For GdDTPA, the tracer added was Tc-99m labeled DTPA. The amount of radioactivity added to the buffer solution was 1-5 μCi.
The heart was perfused for a period of 10 minutes and the perfusion solution was recycled through the heart. The total volume of K-H buffer used was 50-60 mL. After 10 min, the heart was removed from the apparatus and any connective tissue was removed. The heart was opened, fluid in the chambers drained, and the interior blotted dry with filter paper. The heart was then weighed and the radioactivity in the heart measured with a Packard Cobra 5003 Gamma Scintillation counter. An aliquot of the K-H buffer was also weighed and counted. Studies were performed at least in duplicate.
The dual peptide gadolinium tetramer (Compound ID 803) was compared to GdDTPA. Compound ID 803 and GdDTPA were added to the K-H buffer solution to a total concentration of 3 μM. Also added to the K-H buffer was a radiotracer analog of Compound ID 803 or GdDTPA. For Compound ID 803, the radiotracer was an aliquot of the In-111 labeled compound. For GdDTPA, the tracer added was Tc-99m labeled DTPA. The amount of radioactivity added to the buffer solution was 1-5 μCi.

A short description of series [5]: Biodistribution (heart, blood) after tail vein injection, radiotracer counting. The note with it: for Blood (% ID/g) / Heart (% ID/g): rat, 0.5 μmol/kg tail vein. Format: in vivo, Sprague-Dawley rats. The protocol:
Concentration estimates were decay corrected. Studies were performed at least in duplicate.

For the next series, the target named is T1, rat type I collagen gel (Rattus norvegicus, UniProt P02454+P02466).
T1 construct: Rat collagen (acid soluble, type I, rat tail, Upstate USA, Inc, cat# 08-115); purchased Upstate USA, Inc 08-115; host or cells: rat tail (tissue extract)
As to the kind of experiment: MR phantom imaging of collagen gel samples at 4.7 T. The method, then: (§1) Samples: • 1. […] Sample prepared as sample 2, but centrifuged to separate insoluble rat collagen gel • 5. Sample prepared as sample 3, but centrifuged to separate insoluble human collagen gel • 6. 27 μM GdDTPA solution in PBS, pH 7.4 • 7. 27 μM GdDTPA in a solution of 5.0 μM rat type I collagen in 10 mM phosphate buffer, pH 5 incubated at 37° C. overnight to form a gel • 8. Sample prepared as in sample 7, but centrifuged to separate insoluble rat collagen gel • 9. Homogeneous gel of 5 μM rat collagen • 10. Homogeneous gel of 7.5 μM human collagen
Samples for imaging were placed in glass tubes that were in turn placed in tubes containing water. Images were acquired at 4.7 T on a Bruker Biospec Imager using a Multi-Slice Multi-Echo Method with variable Relaxation Delay (MSMEVTR) experiment. The spin echo time and the relaxation delay were set to TE=11.2 ms and TR=500 ms, respectively with a flip angle of 30°. Images were acquired of sample 2, sample 4, sample 7, and sample 8. […] Sample 7 and 8 show uniform signal intensity.

For series [6], the system named is perfused Langendorff rat heart. Put plainly: Washout kinetics from perfused Langendorff rat heart. The protocol: A K-H buffer filled 20 Gauge needle was inserted into the apex of the heart penetrating into the bottom of the chamber. This was attached to a pressure transducer used to record and monitor heart function. Perfusion pressure (60 mmHg) was monitored using a second transducer. The heart was perfused at a constant flow rate of 10-12 mL/min with 37° C. […] The heart was paced at 300 beats/min.
A Langendorff rat heart preparation was perfused with K-H buffer at a rate of 10-12 mL/min. […] After the infusion was finished, the heart was either removed or perfusion was allowed to continue for an additional 10 minutes and then the heart was removed. The perfusion buffer was not recirculated through the heart. After removal of any connective tissue, the heart was opened, fluid in the chambers drained, and the interior blotted dry with filter paper. […] An aliquot of the K-H buffer was also weighed and counted. Concentration estimates were decay corrected. Studies were performed at least in duplicate.

Series [7] in a line: MR phantom study: T1 of samples at 0.47 Tesla. The series is classed as physicochemical. The method, then:
Acid soluble human collagen type I extracted from placenta (Sigma, cat# C7774, lot#083K375) was dissolved in 15 mM HCl (3.5 mg/mL) by vortexing and gently shaking for 3-4 hours at 4° C. The acid soluble collagen was dialyzed against PBS (pH 7.4). Protein concentration was determined by the BCA method (Pierce, Cat#23225) using bovine collagen (Vitrogen, cat#FXP-019) as a reference standard. The final collagen concentration for the stock solution was 9 μM.
Rat collagen (acid soluble, type I, rat tail, Upstate USA, Inc. Cat# 08-115) was dialyzed against 10 mM Phosphate buffer (NaH2PO4, pH 4.2). The final collagen concentration for the stock solution was approx. 12 μM.
as §1
T1 was determined for samples 1, 2, 3, 6, 7, 9, 10 at 0.47 Tesla using a Bruker NMS120 minispec NMR analyzer operating at 37° C.

Setting [8] is: in 5.0 μM rat collagen gel, 10 μM Compound ID 1022 or 27 μM GdDTPA, 37° C.
Setting [9] is: in PBS pH 7.4, 10 μM Compound ID 1022 or 27 μM GdDTPA, 37° C.

T1 sequence (P02454 152-1207 limits assumed): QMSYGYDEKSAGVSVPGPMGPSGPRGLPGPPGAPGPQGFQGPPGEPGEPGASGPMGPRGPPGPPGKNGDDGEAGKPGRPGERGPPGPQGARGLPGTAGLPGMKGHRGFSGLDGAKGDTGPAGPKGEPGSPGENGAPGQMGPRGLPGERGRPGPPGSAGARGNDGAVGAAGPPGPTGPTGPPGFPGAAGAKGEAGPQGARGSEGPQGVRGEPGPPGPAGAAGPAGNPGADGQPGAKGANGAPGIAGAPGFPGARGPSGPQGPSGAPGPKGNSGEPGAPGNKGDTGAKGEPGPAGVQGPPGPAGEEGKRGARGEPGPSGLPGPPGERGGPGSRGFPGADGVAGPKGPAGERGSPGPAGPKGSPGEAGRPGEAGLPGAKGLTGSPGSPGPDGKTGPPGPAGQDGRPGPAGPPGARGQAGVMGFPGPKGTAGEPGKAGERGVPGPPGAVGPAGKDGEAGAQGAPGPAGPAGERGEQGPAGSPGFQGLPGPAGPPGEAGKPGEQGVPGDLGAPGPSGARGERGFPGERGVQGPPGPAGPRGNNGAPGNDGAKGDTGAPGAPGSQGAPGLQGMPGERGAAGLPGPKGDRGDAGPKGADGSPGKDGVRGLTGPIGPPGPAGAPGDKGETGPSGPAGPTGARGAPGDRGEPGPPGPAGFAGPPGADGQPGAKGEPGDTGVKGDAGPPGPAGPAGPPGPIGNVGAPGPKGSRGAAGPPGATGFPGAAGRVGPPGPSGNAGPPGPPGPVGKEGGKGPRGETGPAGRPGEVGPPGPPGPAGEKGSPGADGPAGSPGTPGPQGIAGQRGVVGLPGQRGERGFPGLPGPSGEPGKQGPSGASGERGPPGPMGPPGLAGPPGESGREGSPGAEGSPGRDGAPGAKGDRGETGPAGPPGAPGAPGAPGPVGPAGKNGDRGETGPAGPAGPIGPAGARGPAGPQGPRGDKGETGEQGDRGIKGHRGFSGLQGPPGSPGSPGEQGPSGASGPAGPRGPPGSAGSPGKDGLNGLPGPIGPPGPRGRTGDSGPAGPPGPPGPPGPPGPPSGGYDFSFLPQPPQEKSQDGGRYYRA
T1 sequence (P02466 86-1125 limits assumed): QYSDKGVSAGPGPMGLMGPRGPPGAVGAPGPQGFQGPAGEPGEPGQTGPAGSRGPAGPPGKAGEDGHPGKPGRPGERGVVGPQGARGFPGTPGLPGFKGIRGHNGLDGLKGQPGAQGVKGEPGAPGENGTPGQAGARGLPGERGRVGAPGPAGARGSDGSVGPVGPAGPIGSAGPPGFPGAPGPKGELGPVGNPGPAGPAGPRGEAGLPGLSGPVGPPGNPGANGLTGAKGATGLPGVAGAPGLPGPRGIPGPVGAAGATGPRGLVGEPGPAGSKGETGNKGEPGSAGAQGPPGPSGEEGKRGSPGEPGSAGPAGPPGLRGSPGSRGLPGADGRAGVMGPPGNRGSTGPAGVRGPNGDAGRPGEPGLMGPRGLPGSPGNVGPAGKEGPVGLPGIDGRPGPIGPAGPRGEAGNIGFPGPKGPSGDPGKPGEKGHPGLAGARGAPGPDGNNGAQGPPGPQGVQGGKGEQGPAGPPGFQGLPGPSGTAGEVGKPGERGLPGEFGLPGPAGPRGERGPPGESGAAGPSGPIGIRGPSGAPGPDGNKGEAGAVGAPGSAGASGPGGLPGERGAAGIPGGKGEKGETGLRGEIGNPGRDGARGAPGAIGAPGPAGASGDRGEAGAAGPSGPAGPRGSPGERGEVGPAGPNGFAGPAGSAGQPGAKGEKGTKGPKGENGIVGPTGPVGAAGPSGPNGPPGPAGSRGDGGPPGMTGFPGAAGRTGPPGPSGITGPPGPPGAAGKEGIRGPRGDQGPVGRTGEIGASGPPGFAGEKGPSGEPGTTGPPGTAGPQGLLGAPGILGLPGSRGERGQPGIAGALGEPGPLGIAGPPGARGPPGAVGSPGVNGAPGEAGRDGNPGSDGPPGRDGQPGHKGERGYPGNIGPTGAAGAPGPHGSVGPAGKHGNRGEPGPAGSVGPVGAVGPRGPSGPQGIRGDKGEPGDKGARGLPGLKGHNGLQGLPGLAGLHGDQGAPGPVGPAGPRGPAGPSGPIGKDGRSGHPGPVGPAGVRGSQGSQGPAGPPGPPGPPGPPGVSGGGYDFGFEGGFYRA

Take `CC(C)C[C@H](NC(=O)[C@@H]1CSSC[C@H](NC(=O)[C@H](Cc2c[nH]cn2)NC(=O)[C@H](Cc2c[nH]c3ccccc23)NC(=O)[C@H](CCCCNC(=O)CNC(=S)Nc2ccc(C[C@@H](CN(CCN(CC(=O)O)CC(=O)O)CC(=O)O)N(CC(=O)O)CC(=O)O)cc2)NC(=O)CNC(=S)Nc2ccc(C[C@@H](CN(CCN(CC(=O)O)CC(=O)O)CC(=O)O)N(CC(=O)O)CC(=O)O)cc2)C(=O)N[C@@H]([C@@H](C)O)C(=O)N[C@@H]([C@@H](C)O)C(=O)N[C@@H](CCCCNC(=S)Nc2ccc(C[C@@H](CN(CCN(CC(=O)O)CC(=O)O)CC(=O)O)N(CC(=O)O)CC(=O)O)cc2)C(=O)N[C@@H](Cc2ccccc2)C(=O)N2CCC[C@H]2C(=O)N[C@@H](Cc2c[nH]cn2)C(=O)N[C@@H](Cc2c[nH]cn2)C(=O)N[C@@H](Cc2ccc(O)cc2)C(=O)N1)C(=O)N[C@@H](Cc1ccc(O)cc1)C(=O)N[C@@H](Cc1ccc(-c2ccccc2)cc1)C(N)=O` [Compound ID 800]: in series [1], the “Gadolinium concentrations in the blood” value was determined as 14.3±2.3 nmol Gd/g tissue and the “Gadolinium concentrations in the heart” value was 25.5±2.0 nmol Gd/g tissue. Besides, in the series on infarcted myocardium [2], the “enhancement of infarcted zones” value is listed as “hyperenhancement of infarcted zones” and the “persistence of the enhancement” value is given as “at least 1 hour”. The “MR appearance of infarct zone” value in the series with infarcted myocardium [3] is “infarct zone as hyperintense relative to the normal, viable myocardium”.

As for `O=C([O-])CN(CCN(CC(=O)[O-])CC(=O)O)CCN(CC(=O)[O-])CC(=O)O.[Gd+3]` [GdDTPA, gadolinium diethylenetriaminepentaacetate, reference compound], the “Heart:Buffer” value in series [4] (buffer 3.0 μM) stood at 0.42 ± 0.06; in series [4] (buffer 30 μM), 0.46 ± 0.03; in series [4] (ratio of heart concentration to buffer concentration (3.0 μM), 10 min perfusion), 0.46 ± 0.05. The “Heart” value in series [4] (buffer 3.0 μM, 10 minutes recirculating perfusion) came out at 1.3 ± 0.3 nmol/g; in series [4] (buffer 30 μM, 10 minutes recirculating perfusion) it was 14 ± 1.0 nmol/g; in series [4] (perfused Langendorff rat heart, 3 μM compound in recirculated K-H buffer, 10 min perfusion, radiotracer counting), 1.4 ± 0.02 nmol/g. In addition, the “Heart:Blood” value in series [5] (1 min post injection) and in series [5] (5 min post injection) was 0.26 each time. In addition, the “Blood (% ID/g)” value in series [5] (1 min post injection) was 1.2 ± 0.2 % ID/g; in series [5] (5 min post injection), 0.67 ± 0.12 % ID/g. Moreover, the “Heart (% ID/g)” value was 0.32 ± 0.02 % ID/g in series [5] (1 min post injection); 0.17 ± 0.08 % ID/g in series [5] (5 min post injection); 2.9 ± 1.5 % ID/g in series [6] (0 min after infusion); 0.014 ± 0.002 % ID/g in series [6] (10 min after infusion, non-recirculated buffer); 2.53 ± 0.50 % ID/g in series [6] (time after infusion 0 min, 1 mL of 300 μM infused at 1 mL/min, buffer not recirculated); 0.056 ± 0.011 % ID/g in series [6] (time after infusion 10 min, 1 mL of 300 μM infused at 1 mL/min, buffer not recirculated). Besides, the “MR signal of centrifuged collagen gel pellet versus supernatant” value at rat type I collagen gel was “no increased concentration of GdDTPA in the gel relative to the supernatant”. The “T1” value in series [7] (setting [8]) was found to be 2.410 s; in series [7] (setting [9]), 2.437 s.

For the molecule “Glu-DTPA-Gd-G.Q.W.H.C.T.T.R.F.P.H.H.Y.C.L.Y.G-PEG-H (GQWHCTTRFPHHYCLYG; disulfide 5-14 (inferred); not fully specified (N-terminus, C-terminus); also: Gd complex of DTPA) [SEQ ID NO. 186]”, the “MR signal of centrifuged collagen gel pellet versus supernatant” value with rat type I collagen gel is “the pellet for sample 4 was much brighter than the supernatant”. Moreover, the “T1” value is 2.370 s in series [7] (setting [8]); 2.100 s in series [7] (in 7.5 μM human collagen gel, 10 μM Compound ID 1022, 37° C.); 2.375 s in series [7] (setting [9]).
